Experimental data taken from patent US20240197694A1, “MODIFIED PROTEINS AND PROTEIN BINDERS” (Cullgen (Shanghai), Inc., priority 2021, published 2024).

The compounds below were run against T1, DCAF1 (1058-1396) (Homo sapiens, UniProt Q9Y4B6) (assay: Surface plasmon resonance (SPR) binding assay, compound binding to DCAF1). Details: immobilized DCAF1 (1058-1396), steady state affinity model, 25° C.
T1 construct: a fragment of a DCAF1 protein that includes amino acid residues A1058 to E1396; His6 (N, cleaved yes); made in house; host or cells: Sf9 insect cells (Bac-to-Bac baculovirus, pFastBacHT vector)
Description: Binding affinities of specific exemplary compounds to DCAF1 (1058-1396), which is a fragment of a DCAF1 protein that includes amino acid residues A1058 to E1396 were determined by a surface plasmon resonance (SPR) assay. Briefly, purified DCAF1 (1058-1396) proteins were immobilized at a density of 9,000-11,000 resonance units (RUs) on a CMS sensor chip. Sensorgrams were recorded at different concentrations of compounds in multi-cycle kinetic format. Data were analyzed using a steady state affinity model through Biacore Evaluation Software to provide equivalent dissociation constants (Kd).
Binding affinities of compounds to DCAF1 were determined by a surface plasmon resonance (SPR) assay. Purified DCAF1 (1058-1396) proteins were immobilized on a CMS sensor chip, and a dose range of compound solutions were injected in multi-cycle kinetic format. Data were analyzed using a steady state model to provide equivalent dissociation constants (Kd).
Protein Expression and Purification: Human DCAF1 (1058-1396) (UniPro: Q9Y4B6) coding sequences were cloned into pFastBacHT vector and were expressed in Sf9 cells using Bac-to-Bac baculovirus expression system (Thermo Fisher Scientific). The expression construct for DCAF1 (1058-1396) included a N-terminal His6-tag to facilitate the purification. DCAF1 (1058-1396) proteins were obtained from supernatants of cell lysates and purified through sequential application of Ni affinity chromatography (Ni-NTA column, Bio-Rad), Tag removal using TEV protease, and size-exclusion chromatography (Superdex 200 column, GE Healthcare).
Surface plasmon resonance (SPR) binding assays: SPR studies were performed on a Biacore X100 plus or T200 instrument (GE Healthcare). Immobilization of purified DCAF1 (1058-1396) was carried out at 25° C. using a CMS sensor chip. The surface was pre-equilibrated in HBS-EP running buffer (10 mM HEPES, pH 7.4, 150 mM NaCl, 3 mM EDTA, 0.05% P20), before being activated with EDC/NHS. DCAF1 (1058-1396) was immobilized through amino groups to a density of 9,000-12,000 resonance units (RUs) on flow cell channel 2 (FC2), whereas flow cell channel 1 (FC1) was used as reference. Both DCAF1 immobilized and reference surfaces were deactivated with 1 M ethanolamine.
Interaction experiments were performed at 25° C. The compounds were prepared and serially diluted in HBS-EP running buffer containing final 2% DMSO (6-point two-fold serial dilution, 100 μM -3.125 μM final concentration of compounds). Compound Solutions were injected individually in multi-cycle kinetic format without regeneration (flow rate 30 μL/min, association time 60 s, dissociation time 60 s). Sensorgrams from reference surfaces and blank injections were subtracted from the raw data (double-referenced) and the data was solvent-corrected prior to analysis. Data were analyzed using a steady state affinity model through Biacore Evaluation Software to provide equivalent dissociation constants (Kd).

T1 sequence (Q9Y4B6 1058-1396): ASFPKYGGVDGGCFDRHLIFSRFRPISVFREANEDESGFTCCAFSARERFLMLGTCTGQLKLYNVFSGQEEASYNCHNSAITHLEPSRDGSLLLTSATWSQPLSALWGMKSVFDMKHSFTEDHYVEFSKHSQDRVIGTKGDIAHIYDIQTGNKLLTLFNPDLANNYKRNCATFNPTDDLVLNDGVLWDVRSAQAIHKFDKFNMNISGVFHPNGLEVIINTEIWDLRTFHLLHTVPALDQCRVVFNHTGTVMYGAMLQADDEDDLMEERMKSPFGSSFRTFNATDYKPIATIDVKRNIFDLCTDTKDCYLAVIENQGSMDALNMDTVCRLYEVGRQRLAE

`Cc1ccc2c(c1)C1CN(C)CCC1N2C(=O)/C=C/c1ccc2c(c1)OCO2` (stereo not shown) [CPD-086, (E)-3-(benzo[d][1,3]dioxol-5-yl)-1-(2,8-dimethyl-1,2,3,4,4a,9b-hexahydro-5H-pyrido[4,3-b]indol-5-yl) prop-2-en-1-one] and `COc1ccc(/C=C/C(=O)N2c3ccc(C)cc3C3CN(C)CCC32)cc1` (stereo not shown) [CPD-085, (E)-1-(2,8-dimethyl-1,2,3,4,4a,9b-hexahydro-5H-pyrido [4,3-b]indol-5-yl)-3-(4-methoxyphenyl)prop-2-en-1-one] cannot be ordered by Kd: greater than 100 µM for the first, greater than 100 µM for the second.

`CN1Cc2ccccc2CC1CNC(=O)c1nc(=N)[nH]c2c1CCCC2` (stereo not shown) [CPD-092, 2-imino-N-((2-methyl-1,2,3,4-tetrahydroisoquinolin-3-yl)methyl)-1,2,5,6,7,8-hexahydroquinazoline-4-carboxamide] and `Cc1nc(N)nc(C)c1CC(=O)NCC1Cc2ccccc2CN1C` (stereo not shown) [CPD-094, 2-(2-amino-4,6-dimethylpyrimidin-5-yl)-N-((2-methyl-1,2,3,4-tetrahydroisoquinolin-3-yl)methyl)acetamide] fall in the same range of Kd: 40 to 70 µM for the first, 40 to 70 µM for the second.

`Cc1ccc2[nH]c3c(c2c1)CN(CC1(CC(=O)O)CC1)CC3` [CPD-055, 2-(1-((8-methyl-1,3,4,5-tetrahydro-2H-pyrido[4,3-b]indol-2-yl)methyl)cyclopropyl) acetic acid] and `O=C(O)CCN1CCc2[nH]c3ccc(Br)cc3c2C1` [CPD-054, 3-(8-bromo-1,3,4,5-tetrahydro-2H-pyrido[4,3-b]indol-2-yl)propanoic acid] cannot be ordered by Kd: greater than 100 µM for the first, greater than 100 µM for the second.

`Cc1ccc2c(c1)[C@@H]1CN(C)CC[C@H]1N2` (racemic) [CPD-032, trans-2,8-dimethyl-2,3,4,4a,5,9b-hexahydro-1H-pyrido [4,3-b]indole] and `Cc1cccc2c1[C@@H]1CN(C)CC[C@H]1N2` (racemic) [CPD-039, trans-2,9-dimethyl-2,3,4,4a,5,9b-hexahydro-1H-pyrido [4,3-b]indole] cannot be ordered by Kd: greater than 100 µM for the first, greater than 100 µM for the second.

`Cc1ccc(C(=O)N[C@H](C(=O)N2c3ccc(C)cc3C3CN(C)CCC32)C(C)C)cc1` (stereo partly drawn) [CPD-079, N-((2S)-1-(2,8-dimethyl-1,2,3,4,4a,9b-hexahydro-5H-pyrido [4,3-b]indol-5-yl)-3-methyl-1-oxobutan-2-yl)-4-methylbenzamide] and `COc1cc(C)ccc1C(=O)N1c2ccc(C)cc2C2CN(C)CCC21` (stereo not shown) [CPD-067, (2,8-dimethyl-1,2,3,4,4a,9b-hexahydro-5H-pyrido[4,3-b]indol-5-yl)(2-methoxy-4-methylphenyl)methanone] cannot be ordered by Kd: greater than 100 µM for the first, greater than 100 µM for the second.

`Cc1ccc2c(c1)C1CN(C)CCC1N2C(=O)c1cc(C#N)oc1C` (stereo not shown) [CPD-072, 4-(2,8-dimethyl-2,3,4,4a,5,9b-hexahydro-1H-pyrido[4,3-b]indole-5-carbonyl)-5-methylfuran-2-carbonitrile] and `COc1nn(C)cc1C(=O)N1c2ccc(C)cc2C2CN(C)CCC21` (stereo not shown) [CPD-070, (2,8-dimethyl-1,2,3,4,4a,9b-hexahydro-5H-pyrido[4,3-b]indol-5-yl)(3-methoxy-1-methyl-1H-pyrazol-4-yl)methanone] cannot be ordered by Kd: greater than 100 µM for the first, greater than 100 µM for the second.

`Cc1ccc2c(c1)[C@H]1CN(C)CC[C@H]1N2C(=O)/C=C/c1nccs1` (racemic) [CPD-037, (E)-1-(cis-2,8-dimethyl-1,2,3,4,4a,9b-hexahydro-5H-pyrido [4,3-b]indol-5-yl)-3-(thiazol-2-yl)prop-2-en-1-one] and `Cc1ccc2c(c1)[C@@H]1CN(C)CC[C@H]1N2C(=O)/C=C/c1nccs1` (racemic) [CPD-035, (E)-1-(trans-2,8-dimethyl-1,2,3,4,4a,9b-hexahydro-5H-pyrido [4,3-b]indol-5-yl)-3-(thiazol-2-yl)prop-2-en-1-one] cannot be ordered by Kd: greater than 100 µM for the first, greater than 100 µM for the second.

`CN1Cc2ccccc2CC1CNc1nccc(-c2ccncc2)n1` (stereo not shown) [CPD-090, N-((2-methyl-1,2,3,4-tetrahydroisoquinolin-3-yl)methyl)-4-(pyridin-4-yl)pyrimidin-2-amine] and `CN(CC1Cc2ccccc2CN1C)C(=O)Cn1cnc2ccccc21` (stereo not shown) [CPD-095, 2-(1H-benzo[d]imidazol-1-yl)-N-methyl-N-((2-methyl-1,2,3,4-tetrahydroisoquinolin-3-yl)methyl)acetamide] fall in the same range of Kd: 40 to 70 µM for the first, 40 to 70 µM for the second.

`Cc1ccc2c(c1)C1CN(C)CCC1N2C(=O)/C=C/c1ccc(S(=O)(=O)N2CCOCC2)cc1` (stereo not shown) [CPD-087, (E)-1-(2,8-dimethyl-1,2,3,4,4a,9b-hexahydro-5H-pyrido [4,3-b]indol-5-yl)-3-(4-(morpholinosulfonyl)phenyl)prop-2-en-1-one] and `COC(=O)c1scc(C)c1S(=O)(=O)N1c2ccc(C)cc2C2CN(C)CCC21` (stereo not shown) [CPD-076, methyl 3-((2,8-dimethyl-1,2,3,4,4a,9b-hexahydro-5H-pyrido[4,3-b]indol-5-yl)sulfonyl)-4-methylthiophene-2-carboxylate] fall in the same range of Kd: 40 to 70 µM for the first, 40 to 70 µM for the second.

First: Cn1cccc1CNCC1CC(c2nncn2C)CC1O (stereo not shown) [CPD-099, 2-((((1-methyl-1H-pyrrol-2-yl)methyl)amino)methyl)-4-(4-methyl-4H-1,2,4-triazol-3-yl)cyclopentan-1-ol]
Second: CCCCNCc1cccn1-c1ccccc1 [CPD-100, N-((1-phenyl-1H-pyrrol-2-yl)methyl)butan-1-amine]
The Kd of the first is lower: 40 to 70 µM for the first, 70 to 100 µM for the second.

`COc1cc(C(=O)N2c3ccc(C)cc3C3CN(C)CCC32)ncn1` (stereo not shown) [CPD-064, (2,8-dimethyl-1,2,3,4,4a,9b-hexahydro-5H-pyrido [4,3-b]indol-5-yl)(6-methoxypyrimidin-4-yl)methanone] and `Cc1ccc2c(c1)[C@@H]1CN(C)CC[C@H]1N2C` (racemic) [CPD-034, trans-2,5,8-trimethyl-2,3,4,4a,5,9b-hexahydro-1H-pyrido[4,3-b]indole] cannot be ordered by Kd: greater than 100 µM for the first, greater than 100 µM for the second.

First: Cc1ccc2c(c1)c1c(n2C)CCN(C)C1 [CPD-022, 2,5,8-trimethyl-2,3,4,5-tetrahydro-1H-pyrido[4,3-b]indole]
Second: Cc1ccc(CCn2c3c(c4ccccc42)CN(C)CC3)cn1 [CPD-059, 2-methyl-5-(2-(6-methylpyridin-3-yl)ethyl)-2,3,4,5-tetrahydro-1H-pyrido[4,3-b]indole]
The Kd of the first is higher: greater than 100 µM for the first, 40 to 70 µM for the second.

Going from `Cc1ccc2[nH]c3c(c2c1)C[N+](C)(C)CC3` [CPD-021, 2,2,8-trimethyl-2,3,4,5-tetrahydro-1H-2λ^4-pyrido[4,3-b]indol-3-ylium] to `Cc1ccc2[nH]c3c(c2c1)CN(CC(O)COc1ccc(C(=O)O)cc1)CC3` (stereo not shown) [CPD-056, 4-(2-hydroxy-3-(8-methyl-1,3,4,5-tetrahydro-2H-pyrido[4,3-b]indol-2-yl)propoxy)benzoic acid], the Kd falls from greater than 100 µM to no more than 40 µM.

First: CCn1ccnc1CN(C)CC1Cc2ccccc2CN1C (stereo not shown) [CPD-091, 1-(1-ethyl-1H-imidazol-2-yl)-N-methyl-N-((2-methyl-1,2,3,4-tetrahydroisoquinolin-3-yl)methyl)methanamine]
Second: OCCCNCc1cccn1-c1ccccc1 [CPD-101, 3-(((1-phenyl-1H-pyrrol-2-yl)methyl)amino)propan-1-ol]
The Kd of the first is lower: 70 to 100 µM for the first, greater than 100 µM for the second.

Compared with `c1ncc(CNCc2ccc3cc[nH]c3c2)[nH]1` [CPD-029, N-((1H-imidazol-5-yl)methyl)-1-(1H-indol-6-yl)methanamine], `OCC1(CNCc2cnc[nH]2)CC1` [CPD-105, (1-((((1H-imidazol-5-yl)methyl)amino)methyl)cyclopropyl) methanol] is lower in Kd: greater than 100 µM for the first, no more than 40 µM for the second. The second binds more tightly here.

In the case of `COc1ccc2cc(CNCc3cncn3CC(C)C)c(=O)[nH]c2c1` [CPD-104, 3-((((1-isobutyl-1H-imidazol-5-yl)methyl)amino)methyl)-7-methoxyquinolin-2(1H)-one], the Kd is reported as 70 to 100 µM.
